Assay results taken from PubChem BioAssay (NCI).
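Growth conditions: 96-well plates. Treatment: test compound, 48 hours, 5 concentrations. Analysis: linear interpolation between bracketing concentrations; unreached endpoints set to highest concentration. TGI denotes the concentration required for complete inhibition of growth.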

Key:
Assay in all cases: inhibition of tumour cell growth, NCI panel, 48 h
[1] = system: ACHN renal
[2] = system: CCRF-CEM leukemia
[3] = system: COLO 205 colon
[4] = system: EKVX NSCLC
[5] = system: HL-60(TB) leukemia
[6] = system: HOP-62 NSCLC
[7] = system: MDA-MB-231 breast
[8] = system: NCI-H23 lung
[9] = system: NCI-H460 lung
[10] = system: NCI-H522 lung
[11] = system: OVCAR-3 ovarian
[12] = system: SK-MEL-5 melanoma
[13] = system: T-47D breast
[14] = system: TK-10 renal
[15] = system: U251 CNS
[16] = system: UACC-62 melanoma
[17] = system: HS 578T breast

| Structure (SMILES) | TGI [1] [µM] | TGI [2] [µM] | TGI [3] [µM] | TGI [4] [µM] | TGI [5] [µM] | TGI [6] [µM] | TGI [7] [µM] | TGI [8] [µM] | TGI [9] [µM] | TGI [10] [µM] | TGI [11] [µM] | TGI [12] [µM] | TGI [13] [µM] | TGI [14] [µM] | TGI [15] [µM] | TGI [16] [µM] | TGI [17] [µM] |
| --- | --- | --- | --- | --- | --- | --- | --- | --- | --- | --- | --- | --- | --- | --- | --- | --- | --- |
| CCOCCOCCOCc1nc(C#N)c(N)o1 | > 100 | > 100 | > 100 | > 100 | > 100 | > 100 | > 100 | > 100 | > 100 | > 100 | > 100 | > 100 | > 100 | > 100 | > 100 | > 100 |  |
| Cc1ccc(CC(Cc2ccccc2C)C(=O)O)c(C(=O)O)c1 (stereo not given) | > 100 | > 100 | > 100 | > 100 | > 100 | > 100 | > 100 | > 100 | > 100 | > 100 | > 100 | > 100 |  | > 100 | > 100 |  | > 100 |
| Cc1ccc(C)n1-c1ccccc1C1C=Cn2c(=O)nnc3c(OC(C)C)c(OC(C)C)c(O)c1c32 (stereo not given) | > 100 | > 100 | 27.7 | > 100 | 59.6 | > 100 | > 100 | > 100 | > 100 | 49.6 | > 100 | > 100 |  | > 100 | > 100 | > 100 | > 100 |
| CC(C)CC(NC(=O)C(C)(CI)Cc1ccccc1)C(=O)Nc1ccccc1 (stereo not given) | > 100 | > 100 | > 100 | > 100 | > 100 |  | > 100 | > 100 | > 100 | > 100 | > 100 | > 100 |  | > 100 | > 100 | > 100 |  |
| COc1cccc2c1c1ccc3c(c1n2C)C(=O)C=CC3=O | 28.6 | > 100 | 19.6 |  | > 100 | > 100 |  | 32.2 | > 100 | 14.7 | 30.5 | > 100 |  | 33.3 | > 100 | 31.2 |  |
| Cc1c2ccccc2c(C2C3C(=O)N(c4ccc(Br)cc4)C(=O)C3ON2C(C(N)=O)c2ccccc2)c2ccccc12 (stereo not given) | 17.3 | 22.4 | 3.33 | 31.7 | 14 | 36.1 |  | 26.9 | 22.2 | 9 | 12.2 | 11.9 | 36.4 |  | 8.94 | 40.4 |  |
| O=c1c2cc(-c3ccccc3)cnc2sn1-c1ccc(Br)cc1 | > 100 | > 100 | > 100 | > 100 | > 100 | > 100 | > 100 | > 100 | > 100 | > 100 | > 100 |  | > 100 |  | > 100 | > 100 |  |
| O=C1/C(=C/c2cccc(Cl)c2)CCCc2ccccc21 | 29.6 | 30.4 | 38.5 | 35.9 | 30.7 | 49 | 38.2 | 36 | 31.2 | 32.1 | 55.8 |  |  | 34.9 | 29.4 | 27 | 32.9 |
| COc1cc(/C=C2\C(=O)N(C(=O)Cc3ccccc3)N=C2C)cc(OC)c1OC | > 100 | > 100 | > 100 | > 100 | > 100 | > 100 |  | > 100 | > 100 | > 100 | > 100 | > 100 |  | > 100 |  |  |  |
| C=C(C)C12CC3CC(/C(=N/O)C(C1)/C3=N\O)[C@@]2(C)O (stereo not given in full) | > 100 | > 100 | > 100 | > 100 | > 100 | > 100 |  | > 100 | > 100 | > 100 | > 100 | > 100 |  | > 100 | > 100 | > 100 |  |
| COC(=O)c1c([N+](=O)[O-])ncn1[C@H]1OC[C@@H](OC(C)=O)[C@@H](OC(C)=O)[C@@H]1OC(C)=O | > 100 | > 100 | > 100 | > 100 | > 100 | > 100 | > 100 | > 100 | > 100 | > 100 | > 100 |  | > 100 | > 100 | > 100 | > 100 |  |
| CC1=C(C#N)C(=C(C#N)C#N)OC1(C)Cc1ccccc1 (stereo not given) | 32.7 |  | 43 | > 100 |  | > 100 | > 100 | > 100 |  | 36.8 | 74.9 | > 100 | 85.6 | > 100 | > 100 | 50.4 | > 100 |
| OC12c3ccccc3C1CCCCC2N1CCCC1 (stereo not given) | > 100 | > 100 | > 100 | > 100 | > 100 | > 100 |  | > 100 | > 100 | > 100 |  | > 100 |  | > 100 | > 100 | > 100 |  |
| CC(C)[N+]([O-])(CCCNc1c2ccccc2nc2cccc([N+](=O)[O-])c12)C(C)C | 0.44 | 1.98 | 0.0577 | 0.528 | 2.69 | 1.77 | 0.441 | 0.168 | 1.78 | 0.147 | 1.07 | 0.0628 |  | 1.4 | 1.19 | 0.356 | 0.402 |
| O=C(Nc1ccc(C(F)(F)F)cc1)NC(F)(F)F | > 100 | > 100 | > 100 | > 100 | > 100 |  |  | > 100 |  |  |  | > 100 | > 100 | > 100 | > 100 |  | > 100 |
| O=C1/C(=C\c2ccc(Cl)cc2)N=C(c2ccccc2)N1n1c(=O)cn[nH]c1=S | > 100 | 15.7 | > 100 | > 100 | 64.6 | > 100 |  | 43.6 | > 100 | 37.2 | 76.2 | 55.3 | 28.6 |  | 37.7 | > 100 |  |
| COc1ccc2c3c1OC1C(F)C=CC4(O)C(C2)NCCC314 (stereo not given) | 10.8 | 3.91 | 3.12 | 11 |  | 7.13 | 12.7 | 6.64 | 21.4 | 2.02 | 7.07 | 16.1 |  | 12.8 | 6.59 | 10.5 | 5.83 |
| CSC12c3cc(C)n(-c4ccc([N+](=O)[O-])cc4)c3CC(C)(C)CN1C(=O)C2Oc1ccccc1 (stereo not given) | > 100 | > 100 | > 100 | > 100 |  | > 100 | > 100 | > 100 | > 100 |  | > 100 | > 100 | > 100 |  | > 100 | > 100 |  |
| COc1ccc(CNc2cnc3cc(N)ccc3n2)cc1 | > 100 | > 100 | > 100 | > 100 | > 100 | > 100 |  | > 100 | > 100 | > 100 | > 100 | > 100 |  | > 100 | > 100 | > 100 |  |
| C=CCOC(=O)CC[C@H](NC(=O)[C@@H](CCC(F)(F)F)Cc1ccc(O)cc1)C(=O)OCC=C | > 100 |  | 40.7 | 73.4 | > 100 | > 100 |  | > 100 |  | 52.7 |  | 35 | 51.5 |  |  | > 100 | > 100 |
| N#CC12C(=O)NC(=O)C1(C#N)C1C=CC2CC1 (stereo not given) | > 100 | > 100 | > 100 | > 100 | > 100 |  |  | > 100 |  | > 100 | > 100 | > 100 | > 100 | > 100 | > 100 | > 100 | > 100 |
| CC(=O)c1nc2ccccc2n1C(C)C(=O)c1ccccc1 (stereo not given) |  | > 100 | > 100 | > 100 | > 100 | > 100 | > 100 | > 100 | > 100 | > 100 | > 100 |  |  | > 100 | > 100 | > 100 | > 100 |
| CC(=O)Nc1ccc2c3c(cc(O)c2c1)N(C(=O)CCCC(=O)N1CC(CCl)c2c1cc(O)c1cc(NC(C)=O)ccc21)CC3CCl (stereo not given) | < 0.0112 | < 0.01 | 0.0215 | 0.0925 | 0.0153 | 0.0596 | < 0.01 | 0.0325 | > 100 | 0.0212 | 0.0262 |  | < 0.01 | 0.057 | < 0.0139 | 0.0173 |  |
| O=c1oc2ccc3ccccc3c2cc1-c1nnc(Nc2ccccc2)s1 | 27.2 |  |  | > 100 |  |  | 35.1 | 98.3 | 42.3 | 69.3 | 31.4 |  | > 100 | 32.1 | 21.3 | 53.9 | > 100 |
| Cc1c(C)c2ccc(OCC(O)COC(C)C)c(C)c2oc1=O (stereo not given) | > 100 | 62.4 | > 10 | > 100 | 60.3 | 58.6 |  | > 100 | 34.6 | 45.8 | > 100 | 30.2 | > 100 | 62.3 | 33.8 | > 100 | > 100 |
